Data from publication doi:10.1101/2020.06.11.145995v1 (biorxiv, 2020).
Like-named read-outs stand apart in the source and are kept apart here. Blank lines part the entries; values can stand above or below the molecule they belong to.

Columns and labels:
Assay in all cases: biochemical
[1] = molecular target: SNARK (Homo sapiens, UniProt Q9H093)
[2] = molecular target: PAK2 (Homo sapiens, UniProt Q13177)
[3] = molecular target: PHKG1 (Homo sapiens, UniProt Q16816)
[4] = molecular target: ZAP70 (Homo sapiens, UniProt P43403)
[5] = molecular target: TSSK1B (Homo sapiens, UniProt Q9BXA7)
[6] = molecular target: ULK3 (Homo sapiens, UniProt Q6PHR2)
[7] = molecular target: PIK3CA(E545K) (Homo sapiens, UniProt P42336, E545K)
[8] = molecular target: PLK1 (Homo sapiens, UniProt P53350)
[9] = molecular target: PRKCH (Homo sapiens, UniProt P24723)
[10] = molecular target: NIM1 (Homo sapiens, UniProt Q8IY84)
[11] = molecular target: WEE2 (Homo sapiens, UniProt P0C1S8)
[12] = molecular target: PRKD1 (Homo sapiens, UniProt Q15139)
[13] = molecular target: PRKG2 (Homo sapiens, UniProt Q13237)
[14] = molecular target: PRKX (Homo sapiens, UniProt P51817)
[15] = molecular target: SNRK (Homo sapiens, UniProt Q9NRH2)
[16] = molecular target: STK36 (Homo sapiens, UniProt Q9NRP7)
[17] = molecular target: TRPM6 (Homo sapiens, UniProt Q9BX84)
[18] = molecular target: PCTK3 (Homo sapiens, UniProt Q07002)
[19] = molecular target: ULK2 (Homo sapiens, UniProt Q8IYT8)
[20] = molecular target: ROCK1 (Homo sapiens, UniProt Q13464)
[21] = molecular target: YSK4 (Homo sapiens, UniProt Q56UN5)
[22] = molecular target: NEK6 (Homo sapiens, UniProt Q9HC98)
[23] = molecular target: TNNI3K (Homo sapiens, UniProt Q59H18)
[24] = molecular target: RSK1 (Homo sapiens, UniProt Q15418)
[25] = molecular target: PAK6 (Homo sapiens, UniProt Q9NQU5)
[26] = molecular target: STK16 (Homo sapiens, UniProt O75716)
[27] = molecular target: RIOK1 (Homo sapiens, UniProt Q9BRS2)
[28] = molecular target: TYK2 (Homo sapiens, UniProt P29597)
[29] = molecular target: VRK2 (Homo sapiens, UniProt Q86Y07)
[30] = read-out: CPT-1-70-1 (1μM) % control
[31] = read-out: HYJ-2-002-1 (1μM) % control

Sequence of RSK1 (Q15418 whole entry): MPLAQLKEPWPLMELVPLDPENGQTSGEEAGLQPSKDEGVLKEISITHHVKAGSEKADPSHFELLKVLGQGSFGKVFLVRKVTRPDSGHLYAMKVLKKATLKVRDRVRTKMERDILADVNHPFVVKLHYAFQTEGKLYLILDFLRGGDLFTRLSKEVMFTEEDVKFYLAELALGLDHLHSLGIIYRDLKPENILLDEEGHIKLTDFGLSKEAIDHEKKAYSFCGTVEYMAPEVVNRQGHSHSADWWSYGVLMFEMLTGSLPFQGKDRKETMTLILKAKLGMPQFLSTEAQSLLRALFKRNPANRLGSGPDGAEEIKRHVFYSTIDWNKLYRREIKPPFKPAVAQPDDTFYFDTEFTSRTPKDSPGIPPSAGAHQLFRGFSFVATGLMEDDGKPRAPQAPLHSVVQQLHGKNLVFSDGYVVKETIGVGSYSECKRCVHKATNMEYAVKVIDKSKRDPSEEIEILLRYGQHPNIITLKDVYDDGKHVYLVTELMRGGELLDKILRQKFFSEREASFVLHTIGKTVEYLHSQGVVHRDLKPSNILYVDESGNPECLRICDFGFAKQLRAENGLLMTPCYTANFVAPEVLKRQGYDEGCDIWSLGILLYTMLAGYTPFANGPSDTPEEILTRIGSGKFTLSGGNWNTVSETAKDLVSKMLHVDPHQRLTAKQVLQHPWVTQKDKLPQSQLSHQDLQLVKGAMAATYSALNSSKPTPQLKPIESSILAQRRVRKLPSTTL
Sequence of TYK2 (P29597 whole entry): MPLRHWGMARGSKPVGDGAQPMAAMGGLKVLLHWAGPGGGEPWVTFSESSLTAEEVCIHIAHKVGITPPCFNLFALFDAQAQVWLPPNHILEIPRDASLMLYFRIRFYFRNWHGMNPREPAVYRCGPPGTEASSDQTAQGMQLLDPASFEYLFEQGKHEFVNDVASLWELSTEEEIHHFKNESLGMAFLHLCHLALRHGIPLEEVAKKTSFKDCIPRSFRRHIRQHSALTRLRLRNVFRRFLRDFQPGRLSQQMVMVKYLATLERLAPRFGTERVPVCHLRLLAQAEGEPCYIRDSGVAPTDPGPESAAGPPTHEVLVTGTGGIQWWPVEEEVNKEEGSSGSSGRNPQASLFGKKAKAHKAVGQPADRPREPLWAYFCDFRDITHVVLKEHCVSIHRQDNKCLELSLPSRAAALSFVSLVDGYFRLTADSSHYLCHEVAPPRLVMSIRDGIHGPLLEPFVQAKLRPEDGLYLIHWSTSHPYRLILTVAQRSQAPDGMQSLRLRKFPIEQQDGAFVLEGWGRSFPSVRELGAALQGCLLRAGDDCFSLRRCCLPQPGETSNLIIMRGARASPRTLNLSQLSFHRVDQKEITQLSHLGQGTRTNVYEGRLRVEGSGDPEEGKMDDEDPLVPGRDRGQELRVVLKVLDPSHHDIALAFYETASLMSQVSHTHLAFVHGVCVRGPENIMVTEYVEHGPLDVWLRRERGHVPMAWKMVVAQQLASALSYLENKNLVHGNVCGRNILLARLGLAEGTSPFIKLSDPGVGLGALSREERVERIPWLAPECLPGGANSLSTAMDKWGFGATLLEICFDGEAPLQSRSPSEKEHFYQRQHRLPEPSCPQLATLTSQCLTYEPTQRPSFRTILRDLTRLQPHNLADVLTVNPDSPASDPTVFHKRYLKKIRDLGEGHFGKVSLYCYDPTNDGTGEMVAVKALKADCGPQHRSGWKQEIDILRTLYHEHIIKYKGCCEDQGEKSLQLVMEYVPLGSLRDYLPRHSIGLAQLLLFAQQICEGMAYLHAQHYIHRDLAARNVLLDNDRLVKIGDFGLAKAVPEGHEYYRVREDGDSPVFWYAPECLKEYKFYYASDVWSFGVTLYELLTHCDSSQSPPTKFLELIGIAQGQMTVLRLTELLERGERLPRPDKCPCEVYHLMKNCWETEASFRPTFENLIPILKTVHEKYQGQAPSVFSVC
Sequence of PIK3CA(E545K) (P42336 whole entry E545K): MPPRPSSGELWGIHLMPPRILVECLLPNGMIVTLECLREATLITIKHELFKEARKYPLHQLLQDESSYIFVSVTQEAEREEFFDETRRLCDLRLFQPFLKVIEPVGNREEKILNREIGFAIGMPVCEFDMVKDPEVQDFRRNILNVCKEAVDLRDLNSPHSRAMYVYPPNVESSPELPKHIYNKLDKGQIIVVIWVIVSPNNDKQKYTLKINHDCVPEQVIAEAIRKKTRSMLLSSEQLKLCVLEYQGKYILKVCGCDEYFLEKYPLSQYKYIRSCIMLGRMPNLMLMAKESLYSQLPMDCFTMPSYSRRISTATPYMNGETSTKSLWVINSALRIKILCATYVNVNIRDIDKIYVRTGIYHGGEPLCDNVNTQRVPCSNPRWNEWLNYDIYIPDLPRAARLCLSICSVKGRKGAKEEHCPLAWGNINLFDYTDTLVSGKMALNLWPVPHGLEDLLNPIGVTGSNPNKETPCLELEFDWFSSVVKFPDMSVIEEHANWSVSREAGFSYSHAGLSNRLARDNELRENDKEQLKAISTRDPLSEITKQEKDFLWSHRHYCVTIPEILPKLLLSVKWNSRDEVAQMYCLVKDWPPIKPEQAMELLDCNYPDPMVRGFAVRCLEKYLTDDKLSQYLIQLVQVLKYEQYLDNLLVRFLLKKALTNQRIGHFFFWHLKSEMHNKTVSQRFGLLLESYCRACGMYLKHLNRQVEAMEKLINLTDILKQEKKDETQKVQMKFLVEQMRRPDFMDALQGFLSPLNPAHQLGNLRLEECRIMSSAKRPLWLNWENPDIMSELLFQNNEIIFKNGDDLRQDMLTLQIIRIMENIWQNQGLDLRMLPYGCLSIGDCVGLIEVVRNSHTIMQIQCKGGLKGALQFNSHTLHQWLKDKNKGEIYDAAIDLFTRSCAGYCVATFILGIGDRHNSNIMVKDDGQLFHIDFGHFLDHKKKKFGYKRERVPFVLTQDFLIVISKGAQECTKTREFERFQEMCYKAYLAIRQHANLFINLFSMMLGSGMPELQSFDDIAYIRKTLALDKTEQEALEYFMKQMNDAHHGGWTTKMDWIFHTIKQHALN
Sequence of TSSK1B (Q9BXA7 whole entry): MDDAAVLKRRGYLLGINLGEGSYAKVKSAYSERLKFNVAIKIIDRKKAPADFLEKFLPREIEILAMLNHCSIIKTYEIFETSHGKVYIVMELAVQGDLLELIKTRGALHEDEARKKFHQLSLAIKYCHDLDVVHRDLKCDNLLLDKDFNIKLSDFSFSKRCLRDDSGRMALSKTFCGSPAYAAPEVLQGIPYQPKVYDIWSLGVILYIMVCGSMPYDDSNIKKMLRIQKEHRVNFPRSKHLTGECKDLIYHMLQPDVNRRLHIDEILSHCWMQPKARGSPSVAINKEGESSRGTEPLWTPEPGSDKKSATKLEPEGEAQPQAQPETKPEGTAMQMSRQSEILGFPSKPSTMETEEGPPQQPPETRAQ
Sequence of VRK2 (Q86Y07 whole entry): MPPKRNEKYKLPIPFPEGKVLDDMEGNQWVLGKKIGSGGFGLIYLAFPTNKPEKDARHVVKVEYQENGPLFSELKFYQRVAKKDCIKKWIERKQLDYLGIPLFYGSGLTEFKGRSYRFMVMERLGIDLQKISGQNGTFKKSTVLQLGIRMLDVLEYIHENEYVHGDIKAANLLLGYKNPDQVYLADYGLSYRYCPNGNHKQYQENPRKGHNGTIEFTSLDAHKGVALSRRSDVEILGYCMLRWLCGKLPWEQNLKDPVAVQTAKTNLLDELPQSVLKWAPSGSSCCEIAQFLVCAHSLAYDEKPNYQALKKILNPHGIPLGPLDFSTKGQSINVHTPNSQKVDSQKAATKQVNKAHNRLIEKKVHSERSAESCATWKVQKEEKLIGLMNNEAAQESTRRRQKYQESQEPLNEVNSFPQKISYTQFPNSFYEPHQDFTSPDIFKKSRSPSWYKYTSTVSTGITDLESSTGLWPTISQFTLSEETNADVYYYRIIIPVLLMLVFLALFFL
Sequence of PAK6 (Q9NQU5 whole entry): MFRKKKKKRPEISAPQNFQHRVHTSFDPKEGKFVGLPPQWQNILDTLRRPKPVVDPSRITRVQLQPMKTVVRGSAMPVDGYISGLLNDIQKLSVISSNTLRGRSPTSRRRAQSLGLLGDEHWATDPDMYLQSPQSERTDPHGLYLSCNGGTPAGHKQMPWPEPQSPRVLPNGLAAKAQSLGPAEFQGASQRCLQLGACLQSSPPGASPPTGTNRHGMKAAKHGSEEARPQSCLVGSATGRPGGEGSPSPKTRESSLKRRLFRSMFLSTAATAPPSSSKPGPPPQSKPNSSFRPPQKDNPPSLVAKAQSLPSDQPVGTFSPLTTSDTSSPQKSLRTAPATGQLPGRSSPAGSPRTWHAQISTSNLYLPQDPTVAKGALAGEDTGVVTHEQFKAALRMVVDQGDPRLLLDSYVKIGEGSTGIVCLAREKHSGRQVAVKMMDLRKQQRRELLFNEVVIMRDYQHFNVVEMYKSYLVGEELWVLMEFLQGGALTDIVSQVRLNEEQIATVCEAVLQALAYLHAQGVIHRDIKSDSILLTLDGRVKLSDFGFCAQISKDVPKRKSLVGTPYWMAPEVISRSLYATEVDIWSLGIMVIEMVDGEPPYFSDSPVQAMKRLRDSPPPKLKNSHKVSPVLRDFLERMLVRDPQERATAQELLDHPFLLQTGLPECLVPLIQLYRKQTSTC
Sequence of NEK6 (Q9HC98 whole entry): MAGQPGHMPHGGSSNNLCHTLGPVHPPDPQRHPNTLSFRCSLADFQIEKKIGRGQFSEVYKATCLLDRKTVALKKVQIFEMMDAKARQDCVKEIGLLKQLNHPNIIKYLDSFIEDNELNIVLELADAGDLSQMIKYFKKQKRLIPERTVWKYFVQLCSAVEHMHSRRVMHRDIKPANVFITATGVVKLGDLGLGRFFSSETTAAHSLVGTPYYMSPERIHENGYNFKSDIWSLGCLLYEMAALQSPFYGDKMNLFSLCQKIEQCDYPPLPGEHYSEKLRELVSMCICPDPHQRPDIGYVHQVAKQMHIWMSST

SMILES: CN1CCN(c2ccc(Nc3nc(Oc4ccc(NC(=O)CCl)cc4)c4cc[nH]c4n3)cc2)CC1 [CPT1-70-1]
remaining activity at 1 µM [1, 30]: 8.5%
remaining activity at 1 µM [2, 30]: 64%
remaining activity at 1 µM [3, 30]: 100%
remaining activity at 1 µM [4, 30]: 0.2%
remaining activity at 1 µM [5, 30]: 25%
remaining activity at 1 µM [6, 30]: 19%
remaining activity at 1 µM [7, 30]: 84%
remaining activity at 1 µM [8, 30]: 100%
remaining activity at 1 µM [9, 30]: 100%
remaining activity at 1 µM [10, 30]: 100%
remaining activity at 1 µM [11, 30]: 100%
remaining activity at 1 µM [12, 30]: 52%
remaining activity at 1 µM [13, 30]: 100%
remaining activity at 1 µM [14, 30]: 100%
remaining activity at 1 µM [15, 30]: 55%
remaining activity at 1 µM [16, 30]: 78%
remaining activity at 1 µM [17, 30]: 48%
remaining activity at 1 µM [18, 30]: 97%
remaining activity at 1 µM [19, 30]: 29%
remaining activity at 1 µM [20, 30]: 29%
remaining activity at 1 µM [21, 30]: 0.45%
remaining activity at 1 µM [22, 30]: 100%
remaining activity at 1 µM [23, 30]: 100%
remaining activity at 1 µM ([24]; read-out: CPT-1-70-1 (1μM) % control, Kin.Dom.1-N-terminal): 72%
remaining activity at 1 µM ([24]; read-out: CPT-1-70-1 (1μM) % control, Kin.Dom.2-C-terminal): 100%
remaining activity at 1 µM [25, 30]: 74%
remaining activity at 1 µM [26, 30]: 0.75%
remaining activity at 1 µM [27, 30]: 49%
remaining activity at 1 µM ([28]; read-out: CPT-1-70-1 (1μM) % control, JH1 domain-catalytic): 7.4%
remaining activity at 1 µM ([28]; read-out: CPT-1-70-1 (1μM) % control, JH2 domain-pseudokinase): 68%
remaining activity at 1 µM [29, 30]: 100%

remaining activity at 1 µM [1, 31]: 100%
remaining activity at 1 µM [2, 31]: 99%
remaining activity at 1 µM [3, 31]: 100%
remaining activity at 1 µM [4, 31]: 69%
remaining activity at 1 µM [5, 31]: 100%
remaining activity at 1 µM [6, 31]: 53%
remaining activity at 1 µM [7, 31]: 100%
remaining activity at 1 µM [8, 31]: 100%
remaining activity at 1 µM [9, 31]: 100%
remaining activity at 1 µM [10, 31]: 100%
remaining activity at 1 µM [11, 31]: 21%
remaining activity at 1 µM [12, 31]: 90%
remaining activity at 1 µM [13, 31]: 100%
remaining activity at 1 µM [14, 31]: 78%
remaining activity at 1 µM [15, 31]: 100%
remaining activity at 1 µM [16, 31]: 2.2%
remaining activity at 1 µM [17, 31]: 100%
remaining activity at 1 µM [18, 31]: 100%
remaining activity at 1 µM [19, 31]: 88%
remaining activity at 1 µM [20, 31]: 98%
remaining activity at 1 µM [21, 31]: 0.45%
remaining activity at 1 µM [22, 31]: 100%
remaining activity at 1 µM [23, 31]: 6.6%
remaining activity at 1 µM ([24]; read-out: HYJ-2-002-1 (1μM) % control, Kin.Dom.1-N-terminal): 96%
remaining activity at 1 µM ([24]; read-out: HYJ-2-002-1 (1μM) % control, Kin.Dom.2-C-terminal): 61%
remaining activity at 1 µM [25, 31]: 100%
remaining activity at 1 µM [26, 31]: 80%
remaining activity at 1 µM [27, 31]: 100%
remaining activity at 1 µM ([28]; read-out: HYJ-2-002-1 (1μM) % control, JH1 domain-catalytic): 53%
remaining activity at 1 µM ([28]; read-out: HYJ-2-002-1 (1μM) % control, JH2 domain-pseudokinase): 100%
remaining activity at 1 µM [29, 31]: 100%
SMILES: CCN1CCN(Cc2ccc(NC(=O)c3ccc(C)c(CCc4cnc5[nH]ccc5c4OC)c3)cc2C(F)(F)F)CC1 [HYJ-2-002-1]
